Source: patent US20230172984A1, “CLEARANCE OF SENESCENT CELLS BY ACTIVATION OF iNKT CELLS” (THE REGENTS OF THE UNIVERSITY OF CALIFORNIA, priority 2020, published 2023)

Tested on: senescent preadipocytes (C12FDG^Hi) in eWAT of HFD mice
Assay: C12FDG flow cytometry assay (SA-βgal activity) on eWAT SVF of HFD mice
Format: in vivo, mouse
Details: HFD-fed mice treated with ABT-737 vs vehicle-treated controls
Protocol: MATERIALS AND METHODS. Mouse husbandry. All procedures involving mice were performed according to the IACUC standards following ethics approval by the animal committee at the University of California, San Francisco. Male C57BL6/J on chow or HFD fed mice. HFD mice were fed a high-fat diet (60% kcal from fat) from 6 weeks until 22 weeks of age. All experiments on HFD mice were performed at 22-24 weeks total age (16-18 weeks on HFD). Age-matched male C57BL6/J mice on standard rodent chow diet were used as controls. For the lung injury model, 10-week-old male C57BL/6J mice were used. The animals were divided into three groups: the control group, the injured group, and the α-GalCer treated group. The animals in the control group received vehicle only (i.p.) on day 10. The injured group animals received bleomycin (3 U/kg) via the intratracheal route at the start of the experiment (day 0). The animals in the α-GalCer treated groups received bleomycin (3 U/kg) on day 0, and i.p. injection of α-GalCer (2 μg/mouse) on day 10. The animals in all the groups were sacrificed on day 14, and lungs were harvested for isolation of primary pulmonary Alveolar Type II cells (ATII) on the same day. For the hydroxyproline assay, mice were euthanized 21 days after injury.
Epidydmal white adipose tissue stromal vascular fraction (eWAT SVF) isolation. eWAT SVF was isolated using standard protocols. Briefly, mice were euthanized, and epididymal fat pads were harvested, washed twice in D-PBS and minced. eWAT pads were digested with 1 U/ml Collagenase-D (Roche) in 1×HBSS containing 1% BSA (Sigma-Aldrich) for 1 hr at 37° C. Digested fat tissue was then strained twice through 100 μm strainers and neutralized with 30 ml of complete culture media (DMEM-F12 1:1, 10% FBS, 1×Penicillin-streptomycin). Samples were spun at 500 g for 5 minutes, shaken to resuspend the SVF pellet and then spun again. The resulting SVF pellet containing blood cells was lysed with ACKS buffer, washed in D-PBS and spun down. Total live SVF cells were counted using trypan blue and then used for various assays.
C12FDG flow cytometry assay. eWAT SVF cells isolated and counted as described above were adjusted to 3×10^6 cells/ml in complete culture media and incubated with 33 μM C12FDG for 1 hr in a 37° C. water bath. Cells were then spun down at 500 g for 5 minutes, washed with Cell Staining buffer, and stained with anti-CD45-APC (clone 30F-11) and anti-CD31-PE-Cy7 (clone 390) each at a 1:200 dilution on ice for 30 minutes. Cells were then washed in Cell Staining buffer and resuspended in Cell Staining buffer containing 1×7-AAD. Samples were analyzed on an Attune acoustic focusing cytometer. Gates were set as follows: cells (FSC-A/SSC-A), forward scatter singlets (FSC-H/FSC-A), side-scatter singlets (SSC-H/SSC-A), live cells (7-AAD^−), non-immune cells (CD45^−), non-endothelial cells (CD31^−) and analyzed for C12FDG fluorescence. […] Data were analyzed with FlowJo (v. 10). For Lung, 1×10^6 cells from each sample were used to perform the assay. The cells were incubated with 66 μm of C12FDG in sterile DMEM containing DNase for 1 hour at 37° C. Following the incubation, the cells were washed with cell staining buffer, blocked with anti CD16/32 mouse monoclonal antibody (1:1000, prepared by the UCSF monoclonal antibody core), and stained with APC anti-mouse CD45 (1:400), and 7-AAD (1:1000). The gating strategy followed selected 7-AAD^−, CD45^−, and C12FDG^+ cells. […]

CN(C)CC[C@H](CSc1ccccc1)Nc1ccc(S(=O)(=O)NC(=O)c2ccc(N3CCN(Cc4ccccc4-c4ccc(Cl)cc4)CC3)cc2)cc1[N+](=O)[O-] [ABT-737]
number of C12FDG^Hi cells in preadipocyte-enriched SVF population (FIG. 2C): reduced the number of C12FDG^Hi cells | relative number of C12FDG^Lo cells in preadipocyte-enriched SVF population (FIG. 2D): increased the relative number of C12FDG^Lo cells
